According to patent US12065427B2, “Heterocyclic compounds capable of activating STING” (BOEHRINGER INGELHEIM INTERNATIONAL GMBH, priority 2021, dated 2024):

What was measured:
[1] = molecular target: T1, STING H232R-variant (Homo sapiens, UniProt Q86WV6, H232R); assay: IRF-inducible SEAP reporter assay in THP1-Blue ISG cells, STING H232R-variant; assay type: cell-based; details: STING H232R-variant (WT), 24 hours incubation
T1 construct: expressed in transfected cells; host or cells: THP1-Blue ISG hSTING KO clone, retroviral MSCV-ires-GFP-Blasti
Text: (§1) In Vitro Cytokine Induction Measured Via Activation of an Interferon Regulatory Factor Inducible Reporter Gene
(§2) Activation of the STING protein expressed in cell lines results in an increase of interferon production. By the stable integration of an interferon regulatory factor (IRF)-inducible SEAP gene (secreted embryonic alkaline phosphatase) reporter construct the functional interferon signaling pathway can be monitored. Using Invivogen's THP1-Blue™ ISG colorimetric enzyme assay and a suitable optical density (OD) reader the activity of SEAP can be detected and quantified. This technique could be used to characterize pharmacological modification of the STING pathway.
(§3) Several single nucleotide polymorphisms have been identified in the human STING gene. To determine the activity of the above described compounds, THP1-Blue™ ISG reporter cell lines expressing the different human STING variants have been generated. To do so, the endogenous human STING was first deleted using the CRISPR/CAS9 system: THP1-Blue ISG cells were electroporated with ALL-IN-ONE CRISPR plasmids targeting the STING gene (purchased from Sigma encoding the gRNA and GFP as a reporter gene for successful transduction). GFP positive cells then were sorted 24 h post transfection and expanded. Cells were then dispersed in semisolid methocel medium to allow single cell clone isolations. Clones were then screened for cGAMP responsiveness using the Quanti-Blue™ reporter assay. Non-responsive clones were subsequently analysed for STING loss by western blotting and sequencing of the STING locus.
(§4) For the overexpression of the human STING variants, a confirmed THP1-Blue™ ISG hSTING KO clone was transduced with individual retroviral plasmids (MSCV-ires-GFP-Blasti) encoding the allelic variants of hSTING (WT (H232R), HAQ, R232H, AQ and R293Q). Transduced cells were sorted for different levels of GFP fluorescence and STING allele expression was analysed by western blot.
(§5) Measurements of SEAP activity were performed in THP1-Blue™ ISG cells stably expressing the different human STING isoforms and the IRF-inducible SEAP reporter construct. Cells were cultivated in RPMI1640 medium with 10% fetal calf serum, 50 μg/ml Penicillin-Streptomycin, 100 μg/ml Zeocin, and 100 μg/ml Normocin in a 37°, 95% humidity and 5% CO2 incubator.
(§6) In preparation for the assay, the cells were distributed into the assay plates with a density of 10000 cells/15 μL per well. Compounds were prepared by an 8 point serial dilution in 50% aqueous DMSO and a final dilution step into medium to ensure a final DMSO concentration of 0.5% in the assay. 5 μL of diluted compounds were added to the plates, followed by a 24 hours incubation at 37° C.
(§7) At the day of the assay, 75 μl per well of Quanti-Blue™ reagent was added to all wells of the plate and the plate was incubated another 30 minutes at 37° C. The OD at 620 nm was measured on the EnVision reader (PerkinElmer).
(§8) EC50 values and Hill slopes were derived from 8-point four parametric non-linear curve fittings with the Megalab software (Boehringer Ingelheim) using the OD at 620 nm.
(§9) Data of EC50 values can be found in tables 2a-2e.
Data of EC50 values on STING H232R-variant can be found in table 2b: […]

[2] = molecular target: T2, STING R293Q-variant (Homo sapiens, UniProt Q86WV6, H232R/R293Q); assay: IRF-inducible SEAP reporter assay in THP1-Blue ISG cells, STING R293Q-variant; assay type: cell-based; details: 24 hours incubation
T2 construct: expressed in transfected cells; host or cells: THP1-Blue ISG hSTING KO clone, retroviral MSCV-ires-GFP-Blasti
Text: as §1, §2, §3, §4, §5, §6, §7, §8, §9
Data of EC50 values on STING R293Q-variant can be found in table 2d: […]

[3] = molecular target: T3, STING AQ-variant (Homo sapiens, UniProt Q86WV6, G230A/H232R/R293Q); assay: IRF-inducible SEAP reporter assay in THP1-Blue ISG cells, STING AQ-variant; assay type: cell-based; details: 24 hours incubation
T3 construct: expressed in transfected cells; host or cells: THP1-Blue ISG hSTING KO clone, retroviral MSCV-ires-GFP-Blasti
Text: as §1, §2, §3, §4, §5, §6, §7, §8, §9
Data of EC50 values on STING AQ-variant can be found in table 2e: […]

[4] = molecular target: T4, STING HAQ-variant (Homo sapiens, UniProt Q86WV6, G230A/H232R/R293Q/R71H); assay: IRF-inducible SEAP reporter assay in THP1-Blue ISG cells, STING HAQ-variant; assay type: cell-based; details: STING HAQ-variant (parental or re-introduced), 24 hours incubation
T4 construct: parental THP1-Blue™ ISG cell lines (which express endogenously HAQ); host or cells: THP1-Blue ISG (parental, endogenous HAQ) or STING-KO clone re-transduced with HAQ (MSCV-ires-GFP-Blasti)
Text: as §1, §2, §3, §4, §5, §6, §7, §8, §9
Data of EC50 values on STING HAQ-variant can be found in table 2a. Shown data below were either derived from the parental THP1-Blue™ ISG cell lines (which express endogenously HAQ) or from genetically engineered THP1-Blue™ ISG cell lines in which first STING has been knocked-out and the HAQ specific STING isoform has been re-introduced as described above.

[5] = in vitro; details: human, Caco-2, pH 7.4
[6] = molecular target: T5, STING R232H-variant (Homo sapiens, UniProt Q86WV6); assay: IRF-inducible SEAP reporter assay in THP1-Blue ISG cells, STING R232H-variant; assay type: cell-based; details: 24 hours incubation
T5 construct: expressed in transfected cells; host or cells: THP1-Blue ISG hSTING KO clone, retroviral MSCV-ires-GFP-Blasti
Text: as §1, §2, §3, §4, §5, §6, §7, §8, §9
Data of EC50 values on STING R232H-variant can be found in table 2c: […]

[7] = tested on: Human STING (hSTING, residues 155-341); assay: Interaction with hSTING as determined by Differential Scanning Fluorimetry (DSF); assay type: binding; details: 100 μM test compounds, 5 μM target protein
Procedure: Interaction with hSTING as Determined by Differential Scanning Fluorimetry (DSF)
In DSF, the temperature at which a protein unfolds, also called the melting temperature Tm, is measured by changes in fluorescence of a dye that binds to the hydrophobic parts of the protein. Tm shifts upon binding of a small molecule are correlated with the binding affinity of this small molecule. As target protein, Human STING (hSTING, residues 155-341, MW: 21578.4 Da; protein stock solution: c=1302 μM stock solution in 20 mM Tris, 100 mM NaCl, 2 mM TCEP pH 8.8) was used, as assay buffer 20 mM Tris, 150 mM NaCI pH7.5 was added where and as necessary.
Final concentrations of components in assay: 100 μM test compounds, 5 μM target protein, “5×” SYPR Orange (from stock solution SYPRO orange solution in DMSO (invitrogen cat.-no. S6650-500 ul), concentration “5000×”)
1) Dilutions of compound stock solutions (10 mM in DMSO) were prepared in assay buffer (20 mM Tris, 150 mM NaCl; pH7.5)
2) 5 μl fluorescent dye stock solution (5000×SYPRO Orange in DMSO) was mixed with 19 μl target protein (1302 μM) and 976 μl assay buffer.
3) 2 μl of this protein-dye-mixture (25×SYPRO Orange and 25 μM Protein) was added to 8 μl diluted compound solution as prepared in step 1. Final volume was 10 μl.
4) With every 20 compounds, two negative controls were measured.
5) The plates were prepared for duplicate measurement and centrifuged for 2 min at 1000 g.
6) For the measurement, a CFX384 Real-Time System (Bio-Rad) was used. The run consisted of 140 cycles with 0.5° C./cycle (temperature ramp 15 s/cycle, 25° C. to 95° C.).
Data analysis: The melting curves were processed in Bio-Rad CFX Manager. Peak type was set to “negative”. Two replicates of TM (melting temperature) measurements were averaged and the standard deviation was calculated.

T5 sequence (Q86WV6 whole entry, stated change not applied): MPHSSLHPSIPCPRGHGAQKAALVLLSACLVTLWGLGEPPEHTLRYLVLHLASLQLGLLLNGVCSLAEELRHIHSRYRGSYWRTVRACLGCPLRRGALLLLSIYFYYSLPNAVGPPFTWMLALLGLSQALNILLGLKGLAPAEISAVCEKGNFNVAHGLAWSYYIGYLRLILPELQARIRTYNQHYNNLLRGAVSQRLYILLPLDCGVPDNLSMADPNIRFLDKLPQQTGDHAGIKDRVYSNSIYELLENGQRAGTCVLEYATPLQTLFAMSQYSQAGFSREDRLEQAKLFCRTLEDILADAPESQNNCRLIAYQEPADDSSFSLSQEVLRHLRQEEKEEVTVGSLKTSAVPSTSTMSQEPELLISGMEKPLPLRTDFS
T3 sequence (Q86WV6 whole entry G230A/H232R/R293Q): as the sequence (Q86WV6 whole entry, stated change not applied) above, with G230A, H232R, R293Q counted along it
T1 sequence (Q86WV6 whole entry H232R): as the sequence (Q86WV6 whole entry, stated change not applied) above, with H232R counted along it
T4 sequence (Q86WV6 whole entry R71H/G230A/H232R/R293Q): as the sequence (Q86WV6 whole entry, stated change not applied) above, with R71H, G230A, H232R, R293Q counted along it
T2 sequence (Q86WV6 whole entry H232R/R293Q): as the sequence (Q86WV6 whole entry, stated change not applied) above, with H232R, R293Q counted along it

SMILES	EC50 [1] [nM]	EC50 [2] [nM]	EC50 [3] [nM]	EC50 [4] [nM]	Papp A→B at 10 μM [5] [×10⁻⁶ cm/s]	efflux ratio at 10 μM [5]	EC50 [6] [nM]	thermal shift (ΔTm) [7] [K]
Cc1cccc2c(-c3cccc4nn(C)cc34)nn(-c3ccc(N4CCOCC4)nc3)c12 [compound 17, 2′,7-dimethyl-1-[6-(mor-pholin-4-yl)pyridin-3-yl]-1H,2′H-3,4′-biindazole]	2100	6100	5700	6800	26	0.3	2000	16
Cc1cccc2c(-c3cccc4nn(C)cc34)nn(-c3ccc(N4CCN(C(N)=O)CC4)nc3)c12 [Example #7, 4-(5-{2′,7-dimethyl-1H,2′H-[3,4′-biindazol]-1-yl}pyri-din-2-yl)piperazine-1-car-boxamide]	200	700	600	800	28	0.6	200	22
CC(=O)N1CCN(c2ccc(-n3nc(-c4cccc5nn(C)cc45)c4cccc(C)c43)cn2)CC1 [compound 15, 1-[4-(5-{2′,7-dimethyl-1H,2′H-[3,4′-biindazol]-1-yl}pyridin-2-yl)piperazin-1-yl]ethan-1-one]	200	700	700	1000	26	0.5	200	21
Cc1c(CO)ccc2c(-c3cccc4nn(C)cc34)nn(-c3ccc(N4CCC(S(C)(=O)=O)CC4)nc3)c12 [compound 75, {1-[6-(4-methanesul-fonylpiperidin-1-yl)pyridin-3-yl]-2′,7-dimethyl-1H,2′H-[3,4′-biindazol]-6-yl}meth-anol]	30	100	100	100	9	4.8	50	26
COC(=O)C1C2CN(c3ccc(-n4nc(-c5cccc6nn(C)cc56)c5cccc(C)c54)cn3)CC21 (centres unmarked) [Example #1, Methyl 3-(5-(2′,7-dimethyl-1H,2′H-[3,4′-biindazol]-1-yl)pyridin-2-yl)-3-azabicyclo[3.1.0]hexane-6-carboxylate]	200	400	200	700		0.4	200	21
Cc1cc2c(-c3nn(-c4ccc(N5CCC(C(=O)O)CC5)nc4)c4c(C)cccc34)cccc2cn1 [Example #61, 1-{5-[7-methyl-3-(3-methylisoquinolin-5-yl)-1H-indazol-1-yl]pyridin-2-yl}piperidine-4-carboxylic acid]	2900	2200	3000	3000	10	1.1	2900	16
Cc1cccc2c(-c3cccc4nn(C)cc34)nn(-c3ccc(N4CCC5(CCC(=O)N5)CC4)nc3)c12 [Example #2, 8-(5-{2′,7-dimethyl-1H,2′H-[3,4′-biindazol]-1-yl}pyri-din-2-yl)-1,8-dia-zaspiro[4.5]decan-2-one]	90	400	200	600	20	0.6	50	22
Cc1cccc2c(-c3cccc4nn(C)cc34)nn(-c3ccc(N4CCC5(CC4)C(=O)N(C)C(=O)N5C)nc3)c12 [compound 9, 8-(5-{2′,7-dimethyl-1H,2′H-[3,4′-biindazol]-1-yl}pyri-din-2-yl)-1,3-dimethyl-1,3,8-triazaspiro[4.5] decane-2,4-dione]	100	600	700	1000	23	0.3	200	23
Cc1cccc2c(-c3cccc4nn(C)cc34)nn(-c3ccc(N4CCC(NS(C)(=O)=O)CC4)nc3)c12 [compound 56, N-[1-(5-{2′,7-dimethyl-1H,2′H-[3,4′-biindazol]-1-yl}pyridin-2-yl)piperidin-4-yl]methanesulfonamide]	400	2200	2100	3000	21	0.6	800	20
